Laboratory results from US8466132B2, “Substituted tetracycline compounds” (Paratek Pharmaceuticals, Inc., priority 2004, dated 2013).

Assays:
Type in all cases: cell-based
E. coli MG 1655 = assay: In vitro minimum inhibitory concentration (MIC) assay, E. coli; parameters: key: Compounds which showed superior inhibition of S. aureus, S. pseumoniae and E. coli are indicated by “***,”; compounds which showed very good or good inhibition of S. aureus, S. pseumoniae and E. coli are indicated by “**” or “*” respectively; compounds which showed very good or good inhibition of S. aureus, S. pseumoniae and E. coli are indicated by “**” or “*” respectively; details: broth microdilution in CAMHB, 35° C., approximately 18 hour
Method: (§1) The following assay is used to determine the efficacy of the tetracycline compounds against common bacteria. 2 mg of each compound is dissolved in 100 μl of DMSO. The solution is then added to cation-adjusted Mueller Hinton broth (CAMHB), which results in a final compound concentration of 200 μg per ml. The tetracycline compound solutions are diluted to 50 μL volumes, with a test compound concentration of 0.098 μg/ml. Optical density (OD) determinations are made from fresh log-phase broth cultures of the test strains. Dilutions are made to achieve a final cell density of 1×10^6 CFU/ml. At OD=1, cell densities for different genera should be approximately:
(§2) 50 μl of the cell suspensions are added to each well of microtiter plates. The final cell density should be approximately 5×10^5 CFU/ml. These plates are incubated at 35° C. in an ambient air incubator for approximately 18 hour. The plates are read with a microplate reader and are visually inspected when necessary. The MIC is defined as the lowest concentration of the tetracycline compound that inhibits growth.
(§3) Table 3 gives the MIC (μg/mL) of selected substituted tetracycline compounds against S. aureus, S. pseuimoniae, and E. coli.

S. pneumoniae 157E = assay: In vitro minimum inhibitory concentration (MIC) assay, S. pneumoniae; parameters: key: Compounds which showed superior inhibition of S. aureus, S. pseumoniae and E. coli are indicated by “***,”; compounds which showed very good or good inhibition of S. aureus, S. pseumoniae and E. coli are indicated by “**” or “*” respectively; compounds which showed very good or good inhibition of S. aureus, S. pseumoniae and E. coli are indicated by “**” or “*” respectively; details: broth microdilution in CAMHB, 35° C., approximately 18 hour
Method: as §1, §2, §3

S. aureus RN450 = assay: In vitro minimum inhibitory concentration (MIC) assay, S. aureus; parameters: key: Compounds which showed superior inhibition of S. aureus, S. pseumoniae and E. coli are indicated by “***,”; compounds which showed very good or good inhibition of S. aureus, S. pseumoniae and E. coli are indicated by “**” or “*” respectively; compounds which showed very good or good inhibition of S. aureus, S. pseumoniae and E. coli are indicated by “**” or “*” respectively; details: broth microdilution in CAMHB, 35° C., approximately 18 hour
Method: as §1, §2, §3

in vitro = assay: in vitro
Method: COS-1 and CHO-K1 cell suspensions were prepared, seeded into 96-well tissue culture treated black-walled microtiter plates (density determined by cell line), and incubated overnight at 37° C., in 5% CO2 and approximately 95% humidity. The following day, serial dilutions of drug were prepared under sterile conditions and transferred to cell plates. Cell/Drug plates were incubated under the above conditions for 24 hours. Following the incubation period, media/drug was aspirated and 50 μL of Resazurin (0.042 mg/ml in PBS w/Ca and Mg) was added. The plates were then incubated under the above conditions for 2 hours and then in the dark at room temperature for an additional 30 minutes. Fluorescence measurements were taken (excitation 535 nm, emission 590 nm). The IC50 (concentration of drug causing 50% growth inhibition) was then calculated.

Row | Compound | Median MIC for E. coli MG 1655 (E. coli MG 1655) | Median MIC for S. pneumoniae 157E (S. pneumoniae 157E) | Median MIC for S. aureus RN450 (S. aureus RN450) | IC50 at 24 h (in vitro)
1 | CCC(=O)c1cc(N(C)C)c2c(c1O)C(=O)C1=C(O)[C@]3(O)C(=O)C(C(N)=O)=C(O)[C@@H](N(C)C)[C@@H]3C[C@@H]1C2 | * | *** | *** | 
2 | CN(C)c1cc(C(=O)N2CCCC2)c(O)c2c1C[C@H]1C[C@H]3[C@H](N(C)C)C(O)=C(C(N)=O)C(=O)[C@@]3(O)C(O)=C1C2=O | * | * | * | 
3 | CCCNC(=O)c1cc(N(C)C)c2c(c1O)C(=O)C1=C(O)[C@]3(O)C(=O)C(C(N)=O)=C(O)[C@@H](N(C)C)[C@@H]3C[C@@H]1C2 | * | * | * | 
4 | CN(C)c1cc(C(=O)N2CCCCCC2)c(O)c2c1C[C@H]1C[C@H]3[C@H](N(C)C)C(O)=C(C(N)=O)C(=O)[C@@]3(O)C(O)=C1C2=O | * | * | ** | 
5 | CN(C)c1cc(C(=O)C(=O)O)c(O)c2c1C[C@H]1C[C@H]3[C@H](N(C)C)C(O)=C(C(N)=O)C(=O)[C@@]3(O)C(O)=C1C2=O | * | * | ** | 
6 | COCCN(C)C(=O)c1cc(N(C)C)c2c(c1O)C(=O)C1=C(O)[C@]3(O)C(=O)C(C(N)=O)=C(O)[C@@H](N(C)C)[C@@H]3C[C@@H]1C2 | * | * | * | 
7 | CC(=O)NCCNC(=O)c1cc(N(C)C)c2c(c1O)C(=O)C1=C(O)[C@]3(O)C(=O)C(C(N)=O)=C(O)[C@@H](N(C)C)[C@@H]3C[C@@H]1C2 | * | * | * | 
8 | CCNC(=O)c1cc(N(C)C)c2c(c1O)C(=O)C1=C(O)[C@]3(O)C(=O)C(C(N)=O)=C(O)[C@@H](N(C)C)[C@@H]3C[C@@H]1C2 | * | * | * | 
9 | COC(=O)CNC(=O)c1cc(N(C)C)c2c(c1O)C(=O)C1=C(O)[C@]3(O)C(=O)C(C(N)=O)=C(O)[C@@H](N(C)C)[C@@H]3C[C@@H]1C2 | * | * | * | 
10 | CN(C)c1cc(C(=O)NCCO)c(O)c2c1C[C@H]1C[C@H]3[C@H](N(C)C)C(O)=C(C(N)=O)C(=O)[C@@]3(O)C(O)=C1C2=O | * | * | * | 
11 | CN(C)c1cc(C(=O)Nc2ccccc2)c(O)c2c1C[C@H]1C[C@H]3[C@H](N(C)C)C(O)=C(C(N)=O)C(=O)[C@@]3(O)C(O)=C1C2=O | * | *** | *** | 
12 | CN(C)c1cc(C(=O)NCCN)c(O)c2c1C[C@H]1C[C@H]3[C@H](N(C)C)C(O)=C(C(N)=O)C(=O)[C@@]3(O)C(O)=C1C2=O | * | *** | * | 
13 | CCONC(=O)c1cc(N(C)C)c2c(c1O)C(=O)C1=C(O)[C@]3(O)C(=O)C(C(N)=O)=C(O)[C@@H](N(C)C)[C@@H]3C[C@@H]1C2 | * | *** | * | 
14 | CN(C)c1cc(C(=O)NOC(C)(C)C)c(O)c2c1C[C@H]1C[C@H]3[C@H](N(C)C)C(O)=C(C(N)=O)C(=O)[C@@]3(O)C(O)=C1C2=O | * | * | * | 
15 | CC(=O)c1cccc(-c2cc(N(C)C)c3c(c2O)C(=O)C2=C(O)[C@]4(O)C(=O)C(C(N)=O)=C(O)[C@@H](N(C)C)[C@@H]4C[C@@H]2C3)c1 | * | *** | *** | 
16 | CN(C)c1cc(-c2ccc(C(N)=O)cc2)c(O)c2c1C[C@H]1C[C@H]3[C@H](N(C)C)C(O)=C(C(N)=O)C(=O)[C@@]3(O)C(O)=C1C2=O | * | ** | * | 
17 | CN(C)c1cc(C(=O)NC(C)(C)C)c(O)c2c1C[C@H]1C[C@H]3[C@H](N(C)C)C(O)=C(C(N)=O)C(=O)[C@@]3(O)C(O)=C1C2=O | * | ** | ** | 
18 | CN(C)c1cc(-c2ccc(C(=O)O)s2)c(O)c2c1C[C@H]1C[C@H]3[C@H](N(C)C)C(O)=C(C(N)=O)C(=O)[C@@]3(O)C(O)=C1C2=O | * | * | * | 
19 | C[C@H]1c2cccc(O)c2C(=O)C2=C(O)[C@]3(O)C(=O)C(C(N)=O)=C(O)[C@@H](N(C)C)[C@@H]3[C@@H](O)[C@@H]21 [doxycycline, Doxycycline] |  |  |  | > 25 µg/mL
20 | CN(C)c1ccc(O)c2c1C[C@H]1C[C@H]3[C@H](N(C)C)C(O)=C(C(N)=O)C(=O)[C@@]3(O)C(O)=C1C2=O [minocycline, Minocycline] |  |  |  | > 25 µg/mL
